Tests used:
[1] = tested on: JFH-1 HCVcc-Luc; assay: microbe, parasite or virus in culture; assay type: cell-based, Hepatitis C virus; conditions: for EC50: Hepatitis C virus, Huh-7.5.1, read-out: EC50, inhibition of HCV infection; for inhibition of HCV infection (in words): Huh7.5.1 cells, comparisons are to aglaroxin C (6)
[2] = tested on: Huh7.5.1 cells; assay: Cytotoxicity, CellTiter-Glo Cell Viability Luminescent Assay; assay type: cell-based, human
Protocol: (§1) To determine the […] of each compound, Huh7.5.1 cells were treated with compounds or DMSO at indicated doses for 3 h in 96-well plates. After removal of compounds, cells were further incubated for 72 h prior to the viability assay. The numbers of viable cells in culture were determined using the CellTiter-Glo Cell Viability Luminescent Assay kit according to the manufacturer's instruction (Promega). Percentages of toxicity were calculated using the formulas: 100-percentage of vial cells relative to that from the dimethyl sulfoxide (DMSO) treated group (100%) (n=3) (FIG. 20-FIG. 57).

[3] = as above; assay type: cell-based, human; conditions: human; Huh7.5.1 cells, 3 h treatment, viability after 72 h; concentration giving 50% cell death
Protocol: as §1

[4] = tested on: Huh7.5.1 cells; assay: MTS cell viability assay; assay type: cell-based, human; conditions: 3 h treatment, 72 h incubation
From the text: In this comparison, niclosamide was used as a positive control, which is known as HCV inhibitor (unclear mechanisms). Data from CellTiter-Glo assay was obtained from separate experiments conducted on a different date.
MTS (3-(4,5-dimethylthiazol-2-yl)-5-(3-carboxymethoxyphenyl)-2-(4-sulfophenyl)-2H-tetrazolium)) assay is a colorimetric assay used to determine the mitochondrial metabolic rate by quantifying the reduced formazan product of MTS in cells to reflect viable cells. To determine the CC50 of each compound, Huh7.5.1 cells were treated with compounds or DMSO at indicated doses for 3 h in 96-well plates. After removal of compounds, cells were further incubated for 72 h prior to conducting the viability assay. The MTS assay in this study is accordance with a protocol provided by manufacturer (Promega, Madison, Wis. USA). One-fifth volume of MTS reagent was added into the culture supernatant at indicated time points. Plates were incubated at 37° C. for 3 hours with 5% CO2 followed by measuring the absorbance at 490 nanometers (nm) with an ELISA reader (SpectraMax Plus 385, Molecular Devices, USA). Percentages of toxicity were calculated using the formulas: 100-percentage of vial cells relative to that from the dimethyl sulfoxide (DMSO) treated group (100%) (n=3) (FIG. 68-FIG. 71).

[5] = tested on: HCV replicon cell line 2-3+ (full-length HCV Genotype 1b RNA genome); assay: HCV replicon system: viral RNA replication and protein synthesis; assay type: cell-based, Hepatitis C virus; conditions: 2 μM for 3 h; for HCV protein synthesis (translation): NS5 by Western blotting after 48 or 72 h; for HCV RNA replication: viral RNA by real-time PCR after 48 or 72 h
Protocol: HCV replicon cell line 2-3+ was treated with the indicated compounds for 3 h. Cells were incubated for an additional 48 hours (FIG. 10A and FIG. 10C) or 72 hours (FIG. 10B and FIG. 10D). Cellular RNA or protein was isolated for quantifications of HCV viral RNA by real-time PCR (FIG. 10A and FIG. 10B) or […] NS5 by Western blotting (FIG. 10C and FIG. 10D).
Next, the ability of the aglaroxin C analogues to inhibit HCV RNA replication and mRNA translation was investigated using an HCV replicon system which harbors a full-length HCV Genotype 1b RNA genome. In replicon cells, HCV RNA replicates and is translated into viral proteins without forming infectious viruses. […] To corroborate these findings, an in vitro translation inhibition assay was assembled where a bicistronic reporter mRNA was programmed for translation in Krebs-2 extracts FIG. 11A-11B.
Cells and Antibodies. The human liver cell line Huh7.5.1 was provided by Scripps Research Institute. The full-length HCV Genotype 1b-replicon-containing cell line 2-3(+) was a gift from University of North Carolina, Chapel Hill, N.C. The Aedes albopictus cell line C6/36 was purchased from American Type Culture Collection (ATCC) (CRL-1660). All cell lines were maintained in DMEM supplemented with 5% penicillin and streptomycin, 1% NEAA, and 10% fetal bovine serum (FBS) (Gemini Bio-Products). The β-actin antibody (clone AC-74) was purchased from Sigma. The HCV NS5A monoclonal antibody 9E10 was a gift from Rockefeller University. Secondary antibodies were purchased from Jackson ImmunoResearch Laboratories, Inc, and Molecular Probes (Invitrogen). Primer sequences are: Dengue 16681: F: 5′-[…]-3′ (SEQ ID NO: 3); R: 5′-[…]-3′ (SEQ ID NO: 4). GAPDH: F: 5′-[…]-3′ (SEQ ID NO: 5); R: 5′-[…]-3′ (SEQ ID NO: 6).

[6] = tested on: Dengue virus (serotype 2, Thailand 16681 strain); assay type: cell-based; conditions: Huh7.5.1 cells, MOI 0.1, 2 μM for 3 h, viral RNA 48 h post-infection normalized against GAPDH
[7] = tested on: HCVpp; assay type: cell-based, Hepatitis C virus; conditions: Huh7.5.1 cells, racemates and single (+)-enantiomers, 1 μM or 2 μM for 3 h, luciferase after 48 h
[8] = tested on: cap-dependent Firefly luciferase (FLuc) translation; assay: In vitro translation of bicistronic FF/HCV/Ren mRNA in Krebs-2 extracts, cap-dependent; assay type: biochemical; conditions: 1 μM, relative to DMSO
From the text: (§2) In this system, Firefly luciferase (FLuc) translation is cap-dependent whereas Renilla luciferase (RLuc) expression HCV-IRES dependent. […] Results are presented relative to values obtained in the presence of DMSO ad expressed as mean±error of two biological replicates.
(§3) In this system, translation of the Firefly luciferase (FLuc) translation is cap-dependent whereas Renilla luciferase (RLuc) translation is dependent upon the HCV internal ribosome entry site (IRES) FIG. 11A.
(§4) In vitro transcriptions and translations were performed as described previously. Plasmid encoding the bicistronic FF/HCV/Ren open reading frame was linearized with BamHI and m^7Gppp-capped mRNA was produced by in vitro transcription reactions using SP6 RNA polymerase. In vitro translation reactions were performed with S10 extracts prepared from Kreb-2 cells and programmed with 4 ng/uL of in vitro transcribed mRNA. Firefly (FF) and Renilla (Ren) luciferase activities were measured on a Berthold Lumat LB9507 Luminometer and values normalized against vehicle control, which was set at 1.

[9] = tested on: HCVcc-Luc; assay: HCVcc time-of-addition assay; assay type: cell-based, Hepatitis C virus; conditions: Huh7.5.1 cells, 0.5 μM for 3 h, luciferase after 48 h
[10] = tested on: CHIKVpp; assay type: cell-based, Chikungunya virus; conditions: Huh7.5.1 cells, racemates and single (+)-enantiomers, 1 μM or 2 μM for 3 h, luciferase after 48 h
[11] = tested on: Ebolapp; assay type: cell-based, Ebola virus
[12] = tested on: HCV internal ribosome entry site (IRES)-dependent Renilla luciferase (RLuc) translation; assay: In vitro translation of bicistronic FF/HCV/Ren mRNA in Krebs-2 extracts, HCV IRES-dependent; assay type: biochemical, Hepatitis C virus; conditions: 1 μM, relative to DMSO
From the text: as §2, §3, §4

[13] = tested on: VSVpp; assay type: cell-based, vesicular stomatitis virus
[14] = tested on: translation; conditions: previous studies; cited from earlier work
[15] = tested on: hepatitis C viral (HCV) entry into host cells; conditions: separate earlier studies; cited from earlier work

## COc1ccc([C@@]23Oc4cc(OC)cc(OC)c4[C@]2(O)c2nc(-c4ccc(C(F)(F)F)cc4)[nH]c(=O)c2[C@H]3c2ccccc2)cc1 (racemic) [12o, (5R,5aR,10bS)-10b-Hydroxy-8,10-dimethoxy-5a-(4-methoxyphenyl)-5-phenyl-2-(4-(trifluoromethyl)phenyl)-3,5,5a,10b-tetrahydro-4H-benzofuro[2′,3′:4,5]cyclopenta[1,2-d]pyrimidin-4-one]
[1]
  EC50: 240 nM
[2]; Huh7.5.1 cells, dose-response up to 200 μM
  maximum cytotoxicity plateau, cell death: ~100%
[3]
  CC50: 10000 nM
[4]
  toxicity curve in MTS assay compared with CellTiter-Glo assay: nearly identical toxicity curves

## COc1ccc([C@@]23Oc4cc(OC)cc(OC)c4[C@]2(O)c2nc(-c4cccc(OC)c4)[nH]c(=O)c2[C@H]3c2ccccc2)cc1 [(+)-12s]
[5]
  HCV protein synthesis (translation): did not inhibit
  HCV RNA replication: did not inhibit
[6]
  inhibition of Dengue virus infection: inhibited Dengue virus infection
[1]
  inhibition of HCV infection (in words): displayed HCV inhibition
[2]; Huh7.5.1 cells
  maximum cytotoxicity plateau compared to racemic counterparts: increased substantially

## COc1ccc([C@@]23Oc4cc(OC)cc(OC)c4[C@]2(O)c2nc(-c4ccc(C)cc4)[nH]c(=O)c2[C@H]3c2ccccc2)cc1 (racemic) [12l, (5R,5aR,10bS)-10b-Hydroxy-8,10-dimethoxy-5a-(4-methoxyphenyl)-5-phenyl-2-(p-tolyl)-3,5,5a,10b-tetrahydro-4H-benzofuro[2′,3′:4,5]cyclopenta[1,2-d]pyrimidin-4-one]
[7]
  inhibition of HCVpp infection: specifically inhibited
[5]
  HCV RNA replication: neither inhibit HCV RNA replication
[1]
  EC50: ~500 nM
  inhibition of HCV infection (in words): three-fold greater inhibition
[2]
  AUC0.2-200, area under the cytotoxicity curve (in words): relatively lower cytotoxicities
[4]
  toxicity curve in MTS assay compared with CellTiter-Glo assay: nearly identical toxicity curves
[8]
  translation inhibition of firefly luciferase (cap-dependent): minimal
[9]
  anti-HCV activity when added 3 h after infection was initiated: partially lost their activity
  anti-HCV activity when added together with the virus: maximal anti-HCV activity
[10]
  inhibition of CHIKVpp infection: specifically inhibited
[11]
  inhibition of Ebolapp infection: not
[12]
  HCV mRNA (IRES-dependent) translation: not inhibited
[13]
  inhibition of VSVpp infection: not

## COc1ccc([C@@]23Oc4cc(OC)cc(OC)c4[C@]2(O)c2nc(-c4ccc(C)cc4)[nH]c(=O)c2[C@H]3c2ccccc2)cc1 [(+)-12l]
[5]
  HCV protein synthesis (translation): did not inhibit
  HCV RNA replication: did not inhibit
[6]
  inhibition of Dengue virus infection: inhibited Dengue virus infection
[1]
  inhibition of HCV infection (in words): displayed HCV inhibition
[2]; Huh7.5.1 cells
  maximum cytotoxicity plateau compared to racemic counterparts: increased substantially
[9]
  anti-HCV activity when added together with the virus: inhibited HCV infection

## COc1ccc([C@@]23Oc4cc(OC)cc(OC)c4[C@]2(O)c2nc(-c4cccc(OC)c4)[nH]c(=O)c2[C@H]3c2ccccc2)cc1 (racemic) [12s, (5R,5aR,10bS)-10b-Hydroxy-8,10-dimethoxy-2-(3-methoxyphenyl)-5a-(4-methoxyphenyl)-5-phenyl-3,5,5a,10b-tetrahydro-4H-benzofuro[2′,3′:4,5]cyclopenta[1,2-d]pyrimidin-4-one]
[7]
  inhibition of HCVpp infection: specifically inhibited
[5]
  HCV RNA replication: neither inhibit HCV RNA replication
[1]
  EC50: ~500 nM
  inhibition of HCV infection (in words): three-fold greater inhibition
[2]
  AUC0.2-200, area under the cytotoxicity curve (in words): relatively lower cytotoxicities
[8]
  translation inhibition of firefly luciferase (cap-dependent): minimal
[9]
  anti-HCV activity when added 3 h after infection was initiated: partially lost their activity
  anti-HCV activity when added together with the virus: maximal anti-HCV activity
[9]; listed as (±)-12s
  anti-HCV activity when added together with the virus: inhibited HCV infection
[10]
  inhibition of CHIKVpp infection: specifically inhibited
[11]
  inhibition of Ebolapp infection: not
[12]
  HCV mRNA (IRES-dependent) translation: not inhibited
[13]
  inhibition of VSVpp infection: not

## COc1ccc([C@@]23Oc4cc(OC)cc(OC)c4[C@]2(O)c2nc4n(c(=O)c2[C@H]3c2ccccc2)CCC4)cc1 [compound 6, Aglaroxin C, reference compound]
[5]
  HCV RNA replication: neither inhibit HCV RNA replication
[1]
  EC50: 1300 nM
[2]; Huh7.5.1 cells, comparisons are to aglaroxin C (6)
  cytotoxicity (in words): plateauing of cytotoxicity
[3]
  CC50: 12000 nM
[8]
  translation inhibition of firefly luciferase (cap-dependent): minimal
[9]
  anti-HCV activity when added 3 h after infection was initiated: partially lost their activity
  anti-HCV activity when added together with the virus: maximal anti-HCV activity
[14]
  translation inhibition (in words): only moderate translation inhibition
[12]
  HCV mRNA (IRES-dependent) translation: not inhibited
[15]
  concentration inhibiting HCV entry into host cells: low μM concentration

From patent US11427595B2, “Compositions and methods for inhibiting viral infection” (Trustees of Boston University, priority 2018, dated 2022)
